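Exposure lasted 48 hours, with cells grown in 96-well plates and compounds tested at five concentrations. Definition used: TGI = concentration required for complete inhibition of growth.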
Tests used:
Test in all cases: NCI anticancer screen, dose series, 48 h
EKVX NSCLC = system: EKVX NSCLC
SNB-78 CNS = system: SNB-78 CNS
UACC-62 melanoma = system: UACC-62 melanoma
MDA-MB-231 breast = system: MDA-MB-231 breast
LXFL 529 NSCLC = system: LXFL 529 NSCLC
ACHN renal = system: ACHN renal
OVCAR-8 ovarian = system: OVCAR-8 ovarian
UACC-257 melanoma = system: UACC-257 melanoma
HCT-15 colon = system: HCT-15 colon
SK-MEL-28 melanoma = system: SK-MEL-28 melanoma

For `O=C(O)CCC(O)=C1S(=O)(=O)OCCOS1(=O)=O`, the TGI (EKVX NSCLC) was > 100 µM, the TGI (SNB-78 CNS) was > 100 µM and the TGI (UACC-62 melanoma) was > 100 µM. For the same compound, the TGI (MDA-MB-231 breast) was > 100 µM, the TGI (LXFL 529 NSCLC) was > 100 µM and the TGI (ACHN renal) was > 100 µM. The TGI (OVCAR-8 ovarian) was > 100 µM, the TGI (UACC-257 melanoma) was > 100 µM and the TGI (HCT-15 colon) was > 100 µM. For the same compound, the TGI (SK-MEL-28 melanoma) was > 100 µM.

With `O=C1c2ccccc2C(=O)c2c1ccc1conc21` the TGI (EKVX NSCLC) was 3.87 µM, the TGI (SNB-78 CNS) was 10.3 µM and the TGI (UACC-62 melanoma) was 5.63 µM. It also gave a TGI (MDA-MB-231 breast) of 1.42 µM, a TGI (LXFL 529 NSCLC) of 3.83 µM and a TGI (ACHN renal) of 3.75 µM. For the same compound, the TGI (OVCAR-8 ovarian) was 4.21 µM, the TGI (UACC-257 melanoma) was 4.37 µM and the TGI (HCT-15 colon) was 5.66 µM. The TGI (SK-MEL-28 melanoma) was 7.94 µM.

`COc1ccc2c(=O)c(-c3cc(OC)c(OC)cc3OC)coc2c1` was tested, and the TGI (EKVX NSCLC) was > 100 µM, the TGI (SNB-78 CNS) was > 100 µM and the TGI (UACC-62 melanoma) was > 100 µM. The TGI (MDA-MB-231 breast) was > 100 µM, the TGI (LXFL 529 NSCLC) was > 100 µM and the TGI (ACHN renal) was > 100 µM. The TGI (OVCAR-8 ovarian) was > 100 µM, the TGI (UACC-257 melanoma) was > 100 µM and the TGI (HCT-15 colon) was > 100 µM. The TGI (SK-MEL-28 melanoma) was > 100 µM.

With `COc1ccc2[nH]c3c(C)c4c(c(C)c3c2c1)CN(C)C=C4` the TGI (EKVX NSCLC) was 38.8 µM, the TGI (SNB-78 CNS) was 4.91 µM and the TGI (UACC-62 melanoma) was 28.1 µM. It also gave a TGI (MDA-MB-231 breast) of 70 µM, a TGI (LXFL 529 NSCLC) of 3.61 µM and a TGI (ACHN renal) of 64 µM. It also gave a TGI (OVCAR-8 ovarian) of 13.6 µM, a TGI (UACC-257 melanoma) of 16.8 µM and a TGI (HCT-15 colon) of 75.1 µM. For the same compound, the TGI (SK-MEL-28 melanoma) was 13.5 µM.

Reference: PubChem BioAssay (NCI)
